The record followed here is patent US6476263B1, “Compounds for inhibiting β-amyloid peptide release and/or its synthesis” (Elan Pharmaceuticals, Inc., priority 1996, dated 2002).

Residues, ends and D or L forms follow the SMILES beside them. *: point of attachment. PhAc = O=C(Cc1ccccc1)*; Boc = CC(C)(C)OC(=O)*

The melting point is the temperature, or range, at which the solid turns liquid.

`COC(=O)[C@H](C)NC(=O)[C@H](C)NC(=O)Cc1ccccc1` [Example 200, N-[N-(Phenylacetyl)-L-alaninyl]-L-alanine Methyl Ester] (HELM PEPTIDE1{[O=C(Cc1ccccc1)[*:2]].A.A.[CO[*:1]]}$$$$V2.0): the melting point fell in the range of 140.5 to 142 °C.

`CCCCCC=CCCC(=O)N[C@@H](C)C(=O)N[C@@H](Cc1ccccc1)C(=O)OC` [Example 12, N-[N-(Dec-4-enoyl)-L-alaninyl]-L-phenylalanine Methyl Ester] displayed a melting point of 115.5 to 117.5 °C.

The compound `COC(=O)[C@H](CCCCN(C)C)NC(=O)[C@H](C)NC(=O)Cc1cc(F)cc(F)c1` [Example 18, Methyl N-[N-(3,5-Difluorophenylacetyl)-L-alaninyl]-(S)-2-amino-6-(N,N-dimethylamino)hexanoate] gave a melting point of 123 to 126 °C.

In turn, `C=CCCC(=O)N[C@@H](C)C(=O)N[C@@H](Cc1ccccc1)C(=O)OC` [Example 11, N-[N-(Pent-4-enoyl)-L-alaninyl]-L-phenylalanine Methyl Ester] had a melting point of 125.5 to 126.5 °C.

With `COC(=O)[C@@H](NC(=O)CNC(=O)Cc1cc(F)cc(F)c1)c1ccccc1` [Example 198, N-[N-(3,5-Difluorophenylacetyl)glycinyl]-L-phenylglycine Methyl Ester], the melting point worked out at 142.3 °C.

Consider `COC(=O)[C@H](Cc1ccccc1)NC(=O)[C@H](C)NC(=O)CC1CCCC1` [Example 68, N-[N-(Cyclopentylacetyl)-L-alaninyl]-L-phenylalanine Methyl Ester], for which the melting point fell in the range of 137 to 139 °C.

In turn, `C[C@H](NC(=O)CC1CC1)C(=O)N[C@H](C(=O)OC(C)(C)C)c1ccccc1` [Example 189, N-[N-(Cyclopropylacetyl)-L-alaninyl]-L-phenylglycine tert-Butyl Ester] displayed a melting point of 105 to 107 °C.

On to `CC(C)(C)OC(=O)[C@@H](NC(=O)[C@@H](NC(=O)Cc1cc(F)cc(F)c1)c1ccccc1)c1ccccc1` [Example 263, N-[N-(3,5-Difluorophenylacetyl)-L-phenylglycinyl]-L-phenylglycine tert-Butyl Ester], for which the melting point is 185 °C.

Compound `CCOC(=O)C(NC(=O)[C@H](C)NC(=O)Cc1cc(F)cc(F)c1)c1ccccn1` (stereo partly drawn) [Example 65, Ethyl N-[N-(3,5-Difluorophenylacetyl)-L-alaninyl]-2-amino-2-(2-pyridyl)acetate] came in with a melting point of 123 to 125 °C.

For `O=C(CC1CC1)N[C@H](C(=O)N[C@H](CO)c1ccccc1)c1ccccc1` [Example 246, N-[N-(Cyclopropaneacetyl)-L-phenylglycinyl]-L-phenylglycinol], the melting point is 202.5 °C.

The compound `COC(=O)[C@H](Cc1cccs1)NC(=O)[C@H](C)NC(=O)Cc1cc(F)cc(F)c1` [Example 36, Methyl N-[N-(3,5-Difluorophenylacetyl)-L-alaninyl]-(S)-2-amino-3-(2-thienyl)propionate] yielded a melting point of 145 to 147 °C.

In the case of `CC[C@H](C)[C@H](NC(=O)Cc1cc(F)cc(F)c1)C(=O)N[C@H](C(=O)OC)c1ccccc1` [Example 255, N-[N-(3,5-Difluorophenylacetyl)-L-isoleucinyl]-L-phenylglycine Methyl Ester], the melting point amounted to 228.8 °C.

The compound `COC(=O)[C@@H](NC(=O)[C@H](C)NC(=O)[C@H](C)NC(=O)Cc1cc(F)cc(F)c1)c1ccccc1` [Example 112, N-[N-[N-(3,5-Difluorophenylacetyl)-L-alaninyl]-L-alaninyl]-L-phenylglycine Methyl Ester] registered a melting point of 243 to 245 °C.

As for `COC(=O)[C@H](Cc1ccccc1)NC(=O)[C@H](C)NC(=O)Cc1ccccn1` [Example 132, N-[N-(2-Pyridylacetyl)-L-alaninyl]-L-phenylalanine Methyl Ester], the melting point fell in the range of 137 to 139 °C.

As for `CC[C@H](NC(=O)[C@H](C)NC(=O)Cc1cc(F)cc(F)c1)C(=O)OC` [Example 160, Methyl N-[N-(3,5-difluorophenylacetyl)-L-alaninyl]-(S)-2-aminobutanoate], the melting point was 103 to 106 °C.

`COC(=O)C(NC(=O)[C@H](C)NC(=O)Cc1cc(F)cc(F)c1)c1cccc(OC)c1` (stereo partly drawn) [Example 63, Methyl N-[N-(3,5-Difluorophenylacetyl)-L-alaninyl]-2-amino-2-(3-methoxyphenyl)acetate] came in with a melting point of 163 to 170 °C.

Take `COC(=O)[C@H](Cc1ccc(OCCCN(C)C)cc1)NC(=O)[C@H](C)NC(=O)Cc1cc(F)cc(F)c1` [Example 13, N-[N-(3,5-Difluorophenylacetyl)-L-alaninyl]-L-4-[3-(N,N-dimethylamino)propoxy]phenylalanine Methyl Ester]: the melting point lay within 153 to 155 °C.

In turn, `COC(=O)[C@H](CCCCNC(=O)OC(C)(C)C)NC(=O)[C@H](C)NC(=O)Cc1ccccc1` [Example 205, N-[N-(Phenylacetyl)-L-alaninyl]-Nε-(tert-butoxycarbonyl)-L-lysine Methyl Ester] (PhAc-Ala-Lys(Boc)-OMe) gave a melting point of 119 to 121 °C.

The compound `COC(=O)C1Cc2ccccc2CN1C(=O)[C@H](C)NC(=O)Cc1cc(F)cc(F)c1` (stereo partly drawn) [Example 32, Methyl 2-[N-(3,5-Difluorophenylacetyl)-L-alaninyl]-1,2,3,4-tetrahydroisoquinoline-3-carboxylate] yielded a melting point of 37 to 40 °C.

As to `COC(=O)[C@@H](NC(=O)CC1CCCC[C@@H]1NC(=O)Cc1cc(F)cc(F)c1)c1ccccc1` (stereo partly drawn) [Example 225, N-[N-(3,5-Difluorophenylacetyl)-2-(S)-aminocyclohexylacetyl]-L-phenylglycine Methyl Ester], the melting point came out at 234.4 °C.

Consider `COC(=O)[C@@H](NC(=O)[C@@H](NC(=O)Cc1cc(F)cc(F)c1)C(C)(C)C)c1ccccc1` [Example 254, N-[N-(3,5-Difluorophenylacetyl)-L-tert-leucinyl]-L-phenylglycine Methyl Ester], for which the melting point amounted to 176.4 °C.

On to `CCCC[C@H](NC(=O)Cc1cc(F)cc(F)c1)C(=O)N[C@H](C(=O)OC)c1ccccc1` [Example 252, N-[N-(3,5-Difluorophenylacetyl)-L-norleucinyl]-L-phenylglycine Methyl Ester], for which the melting point was in the range of 188 to 189.5 °C.

On to `CC[C@H](NC(=O)[C@H](C)NC(=O)Cc1ccccc1)C(=O)OC` [Example 208, Methyl N-[N-(Phenylacetyl)-L-alaninyl]-2-(S)-aminobutanoate] (HELM PEPTIDE1{[O=C(Cc1ccccc1)[*:2]].A.[Abu].[CO[*:1]]}$$$$V2.0), for which the melting point amounted to 120 °C.

Consider `CCOC(=O)C(NC(=O)[C@H](C)NC(=O)Cc1cc(F)cc(F)c1)c1cccnc1` (stereo partly drawn) [Example 53, Ethyl N-[N-(3,5-Difluorophenylacetyl)-L-alaninyl]-2-amino-2-(3-pyridyl)acetate], for which the melting point is 146 to 157 °C.

The compound `COC(=O)[C@H](Cc1ccccc1)NC(=O)[C@H](C)NC(=O)CC1CCCCC1` [Example 67, N-[N-(Cyclohexylacetyl)-L-alaninyl]-L-phenylalanine Methyl Ester] had a melting point of 156 to 158 °C.

With `C[C@H](NC(=O)Cc1cc(F)cc(F)c1)C(=O)NCC(=O)OCCc1ccccc1` [Example 45, N-[N-(3,5-Difluorophenylacetyl)-L-alaninyl]glycine 2-Phenylethyl Ester], the melting point fell in the range of 154 to 155.2 °C.

`CC(C)C[C@H](NC(=O)[C@H](C)NC(=O)Cc1cc(F)cc(F)c1)C(=O)OC(C)(C)C` [Example 40, N-[N-(3,5-Difluorophenylacetyl)-L-alaninyl]-L-leucine tert-Butyl Ester] had a melting point of 128 °C.

`COC(=O)C1CCCCN1C(=O)[C@H](C)NC(=O)Cc1cc(F)cc(F)c1` (stereo partly drawn) [Example 218, Methyl 1-[N-(3,5-Difluorophenylacetyl)-L-alaninyl]piperidine-2-carboxylate] came in with a melting point of 114 to 118 °C.

For `COC(=O)[C@@H](NC(=O)[C@H](C)NC(=O)Cc1cc(F)cc(F)c1)c1ccc2cc(OC)ccc2c1` [Example 182, Methyl N-[N-(3,5-Difluorophenylacetyl)-L-alaninyl]-(S)-2-amino-2-(6-methoxy-2-naphthyl)acetate], the melting point was in the range of 177 to 178 °C.

As to `COCC(NC(=O)[C@H](C)NC(=O)Cc1cc(F)cc(F)c1)C(=O)OC` (stereo partly drawn) [Example 24, Methyl N-[N-(3,5-Difluorophenylacetyl)-L-alaninyl]-2-amino-3-methoxypropionate], the melting point lay within 165 to 168 °C.

`COC(=O)C(NC(=O)[C@H](C)NC(=O)Cc1cc(F)cc(F)c1)c1cccc(C(F)(F)F)c1` (stereo partly drawn) [Example 183, Methyl N-[N-(3,5-Difluorophenylacetyl)-L-alaninyl]-2-amino-2-(3-trifluoromethylphenyl)acetate]: the melting point was 133 to 134 °C.

`COC(=O)[C@@H](NC(=O)[C@@H](NC(=O)Cc1cc(F)cc(F)c1)c1ccsc1)c1ccccc1` [Example 258, N-[N-(3,5-Difluorophenylacetyl)-(S)-2-amino-2-(thien-3-yl)acetyl]-L-phenylglycine Methyl Ester] registered a melting point of 229.3 °C.

Compound `COC(=O)[C@H](NC(=O)[C@H](C)NC(=O)Cc1cc(F)cc(F)c1)c1cccs1` [Example 178, Methyl N-[N-(3,5-Difluorophenylacetyl)-L-alaninyl]-(S)-2-amino-2-(2-thienyl)acetate] had a melting point of 180 to 181 °C.

`CCOC(=O)[C@H](C)NC(=O)[C@@H](NC(=O)CC(C)C)c1ccccc1` [Example 74, N-[N-(Isovaleryl)-L-phenylglycinyl]-L-alanine Ethyl Ester] (HELM PEPTIDE1{[CC(C)CC(=O)[*:2]].[Phg].A.[CCO[*:1]]}$$$$V2.0) registered a melting point of 198 to 201 °C.

The compound `CCOC(=O)[C@H](C)NC(=O)[C@H](C)NC(=O)Cc1cccc([N+](=O)[O-])c1` [Example 76, N-[N-(3-Nitrophenylacetyl)-L-alaninyl]-L-alanine Ethyl Ester] displayed a melting point of 193 to 195 °C.

In turn, `CC[C@H](NC(=O)Cc1cc(F)cc(F)c1)C(=O)N[C@H](C(=O)OC(C)(C)C)c1ccccc1` [Example 191, N-[N-(3,5-Difluorophenylacetyl)-(S)-2-aminobutanoyl]-L-phenylglycine tert-Butyl Ester] came in with a melting point of 138.7 to 140 °C.
